Measurements published in patent US20100003228A1, “T-CELL VACCINE” (priority 2006, published 2010).

Tests used:
Assay type in all cases: cell-based, human
[1] = system: myelin reactive T cells in PBMCs; assay: Epitope Analysis Assay (EAA): PBMC stimulation with myelin peptide mixes, tritiated thymidine incorporation, SI of at least 3 positive; conditions: all 54 subjects tested
Method: The SI may be calculated by comparing [^3H] thymidine incorporation of the sample in the presence of a peptide comprising a portion of an MRTC polypeptide target to that in the presence of a media only control. Briefly, separate aliquots of the sample are plated and incubated in the presence of either a peptide comprising a portion of the polypeptide or a media only control in order to stimulate reactive T cells. The cultures are pulsed with [^3H] thymidine during the last 6-18 hours of incubation. The SI is calculated as the quotient of the mean counts per minute (cpm) of the antigen aliquots/mean cpm of the control aliquots. The SI of autoreactive T cells may be increased by at least a factor of 1.3, 1.4, 1.5, 1.6, 1.7, 1.8, 1.9, 2.0, 2.1, 2.2, 2.3, 2.4, 2.5, 2.6, 2.7. 2.8, 2.9, 3.0, 3.1, 3.2, 3.3, 3.4, 3.5, 3.6, 3.7, 3.8, 3.9, or 4.0 compared to a control.
The peptides in Example 2 were tested in an in vitro PBMC stimulation assay to identify myelin reactive T cells in a patient's blood. Peripheral blood mononuclear cells (PBMCs) were separated from whole blood, washed, counted and plated at 250,000 cells per well in a total of four 96-well plates. Myelin peptide mixes of two overlapping 16-mer peptides were added to triplicate wells of PBMCs with triplicate media only control wells included on each plate and then incubated. After two days of incubation, 20 U/ml of interleukin-2 (IL-2) was added. On the fifth day, the plates were labeled with a radioisotope (tritiated thymidine) and harvested 6 hours later. In this assay, the cells that incorporate tritiated thymidine are representative of T cells being activated and induced to proliferate by the T cell receptor-peptide-MHC complexes. T cells incorporating comparatively more tritiated thymidine than control and experimental cells are more highly activated T cells and are proliferating more rapidly.
Stimulation Indices (SI) were determined for each peptide mix by dividing the mean radiolabel counts per minute (CPM) of the peptide stimulated wells by the mean CPM of the media only control wells averaged across all four plates. An SI of at least 3 was considered positive. FIG. 1 is an example of EAA from one MS patient. Seven of the peptide mixtures were slightly reactive, with the MOGm15 stimulated wells being very reactive. FIGS. 2-4 show the frequency of reactivity to the peptide mixes in 48 patients.

[2] = system: myelin reactive T cells in PBMCs; assay: EAA with positivity by Variance Evaluation Method or CPM Variance Method (clinical trials); conditions: clinical trial population, RR-MS or CIS subjects
Description: The predetermined value may also be calculated using a Variance Evaluation Method as follows: • 1. EAAs may be run on a given patient population (minimum of 120 assays from 120 unique subjects) • 2. A “negative population” may be created by averaging all SI values<2.5 • 3. The Standard Deviation (SD) may be calculated for each peptide • 4. The following for each peptide may be then be calculated: • a. Average+1SD • b. Average+2SD • c. Average+3SD • 5. The following SIs may be considered above the predetermined value: • a. SI greater than or equal to the average+3SD • b. Any SI greater than or equal to 2.5
The predetermined value may also be evaluated using a Counts per Minute (CPM) Variance Method. This algorithm may set a comprehensive cutoff for all peptides within a given assay. It may be calculated as follows: • 1. EAAs may be run and the CPM for all control (media only, no antigen) wells averaged. • 2. The SD for CPM of the control wells may then be calculated. • 3. The following may then be calculated for the control wells: • a. Average+1SD • b. Average+2SD • c. Average+3SD • 4. Any peptide with an average CPM greater than or equal to the average+3SD of the control wells may be considered above the predetermined value.
Any peptide, either analyzed in an individual well or as averaged over wells run in triplicate, with an SI≧2.5, an SI≧average+3SD by the Variance Evaluation Method, or an SI≧average+3SD by the CPM variance method may be considered above the predetermined value, which may indicate a T cell(s) positive for reactivity to a peptide.
The peptides of Example 3 have been tested in 429 EAAs in clinical trials as follows. […] Pre-Vaccine EAAs have 158 positive out of 387 assays (40.8%), with Relapse Remitting MS patients (RRMS) showing 150 positive of 368 assays (40.8%), and Clinically Isolated Syndrome (CIS) patients showing 8 positive of 19 assays (42.1%).
Over the course of 6 months a study was conducted with 120 subjects meeting the criteria for the clinical trial.
The above mentioned population of subjects was evaluated by EAA using the Variance Evaluation Method and CPM Variance Method as described above, and deemed eligible for vaccine production. Of the 120 attempts to manufacture vaccine, there were 2 shipping failures (blood was not received within our stated criteria), 1 culture was lost to contamination and 5 samples arrived with low cell volume/yield. Of the remaining 112 subjects, vaccine was successfully generated in 89 subjects, with 22 still in production (98.9% of eligible samples, 92.5% of all samples completed). From this, a positive EAA was deemed predictive of the ability to manufacture a vaccine to therapeutic dose by methods disclosed herein.

myelin-reactive T cells = assay: Growth of myelin reactive T cell lines with low stimulation indices
Description: Using the algorithms described above, statistically significant SIs as low as 1.3 have been observed and therefore should be able grow in response to antigen. To verify this ability, 5 cell lines across two patients are shown with an SI<2.0. The results are shown in Table 12 and FIG. 24, which indicate growth of these cell lines with only peptide antigen stimulation and common T cell growth factors.
PBMC for subject 1042 were run in the EAA, and […] were positive, including PLPm18 with an SI of 1.8, PLPm26 with an SI of 2.5 and PLPm28 with an SI of 2.5. […] PBMC for subject 1014 were run in the EAA, and 4 mixes were positive, including MBPm14 with an SI of 1.7, PLPm17 with an SI of 1.7, PLPm28 with an SI of 2.2 and MOGm6 with an SI of 1.9. […]
PBMCs were isolated via density gradient centrifugation from peripheral blood obtained through venipuncture into ACD-1 anticoagulant. PBMCs were plated at 2.5E+06 cells/well in 24 well plates. Antigen in the form of 16mer peptides identified in the EAA were added at a final concentration of 20 ug/ml. Interluekin-2 (IL-2) was added at a final concentration of 100 U/ml starting at 48 hours and IL-2 was added at the same concentration with each feeding or splitting of wells. Peptide restimulation in the presence of antigen presenting cells (APCs-autologous PBMCs irradiated at 3500 rad) was done at days 7, 14 and 21. Interleukin-15 (IL-15) was added at a final concentration of 5 ng/ml-20 ng/ml (lot specific) starting at day 14 and continued through the remainder of the culture period. Cells lines were all harvested by day 35 and had achieved expansions of 3.0-8.2 fold.

Row | Substance | subjects tested that were reactive [1] | # of Subjects (frequency of identification) [2] | % of Subjects (frequency of identification) [2] | Fold Expansion (myelin-reactive T cells; subject 1042, Day 0) | Viable Cell Count, Count/well (myelin-reactive T cells; subject 1042, Day 0) | Viable Cell Count, Total Cells (myelin-reactive T cells; subject 1042, Day 0) | Fold Expansion (myelin-reactive T cells; subject 1042, Day 14) | Viable Cell Count, Count/well (myelin-reactive T cells; subject 1042, Day 14) | Viable Cell Count, Total Cells (myelin-reactive T cells; subject 1042, Day 14) | Fold Expansion (myelin-reactive T cells; subject 1042, Day 19) | Viable Cell Count, Count/well (myelin-reactive T cells; subject 1042, Day 19) | Viable Cell Count, Total Cells (myelin-reactive T cells; subject 1042, Day 19) | Fold Expansion (myelin-reactive T cells; subject 1042, Day 26) | Viable Cell Count, Count/well (myelin-reactive T cells; subject 1042, Day 26) | Viable Cell Count, Total Cells (myelin-reactive T cells; subject 1042, Day 26) | Fold Expansion (myelin-reactive T cells; subject 1042, Day 33) | Viable Cell Count, Count/well (myelin-reactive T cells; subject 1042, Day 33) | Viable Cell Count, Total Cells (myelin-reactive T cells; subject 1042, Day 33) | Fold Expansion (myelin-reactive T cells; subject 1042, Day 35) | Viable Cell Count, Count/well (myelin-reactive T cells; subject 1042, Day 35) | other results
1 | MBP 151-170: immunodominant peptide of MBP used to prepare vaccines in Example 1 (TASTMDHARHGFLPRHRDTG; UniProt P02686 151-170, looked up, fragment) | Forty-one percent | – | – | – | – | – | – | – | – | – | – | – | – | – | – | – | – | – | – | – | –
2 | PLP 30-49: PLP immunodominant peptide used to prepare vaccines in Example 1 (ALFCGCGHEALTGTEKLIET; UniProt P60201 30-49, looked up, fragment) | 31% | – | – | – | – | – | – | – | – | – | – | – | – | – | – | – | – | – | – | – | –
3 | PLP 180-199: PLP immunodominant peptide used to prepare vaccines in Example 1 (TWTTCQSIAFPSKTSASIGS; UniProt P60201 180-199, looked up, fragment) | 31% | – | – | – | – | – | – | – | – | – | – | – | – | – | – | – | – | – | – | – | –
4 | PLPm18: mix of PLP 35 and PLP 36 (chain 1 RVCHCLGKWLGHPDKF; chain 2 CLGKWLGHPDKFVGIT) | – | 10 | 8.4% | 1.0 | 2.50E+06 | 3.00E+07 | 0.4 | 9.60E+05 | 1.15E+07 | 0.8 | 1.97E+06 | 2.36E+07 | 1.2 | 1.50E+06 | 3.60E+07 | 3.0 | 3.76E+06 | 9.02E+07 | 3.0 | 3.74E+06 | Viable Cell Count, Total Cells (myelin-reactive T cells; subject 1042, Day 35): 8.98E+07
5 | PLPm26: mix of PLP 51 and PLP 52 (chain 1 CADARMYGVLPWNAFP; chain 2 RMYGVLPWNAFPGKVC) | – | 28 | 23.5% | 1.0 | 2.50E+06 | 3.00E+07 | 0.6 | 1.50E+06 | 1.80E+07 | 1.0 | 2.40E+06 | 2.88E+07 | 3.0 | 3.73E+06 | 8.95E+07 | 4.2 | 2.61E+06 | 1.25E+08 | 5.7 | 3.54E+06 | Viable Cell Count, Total Cells (myelin-reactive T cells; subject 1042, Day 35): 1.70E+08
6 | PLPm28: mix of PLP 55 and PLP 56 (chain 1 GKVCGSNLLSICKTAE; chain 2 GSNLLSICKTAEFQMT) | – | 6 | 5.0% | 1.0 | 2.50E+06 | 3.00E+07 | 0.6 | 1.56E+06 | 1.87E+07 | 1.5 | 3.82E+06 | 4.58E+07 | 3.5 | 4.34E+06 | 1.04E+08 | 7.4 | 4.61E+06 | 2.21E+08 | 8.2 | 5.15E+06 | Fold Expansion (myelin-reactive T cells; subject 1014, Day 0): 1.0; Viable Cell Count, Count/well (myelin-reactive T cells; subject 1014, Day 0): 2.50E+06; Viable Cell Count, Total Cells (myelin-reactive T cells; subject 1014, Day 0): 2.25E+07; Fold Expansion (myelin-reactive T cells; subject 1014, Day 17): 0.9; Viable Cell Count, Count/well (myelin-reactive T cells; subject 1014, Day 17): 3.09E+06; Viable Cell Count, Total Cells (myelin-reactive T cells; subject 1014, Day 17): 2.78E+07; Fold Expansion (myelin-reactive T cells; subject 1014, Day 19): 1.4; Viable Cell Count, Count/well (myelin-reactive T cells; subject 1014, Day 19): 2.41E+06; Viable Cell Count, Total Cells (myelin-reactive T cells; subject 1014, Day 19): 4.34E+07; Fold Expansion (myelin-reactive T cells; subject 1014, Day 28): 2.8; Viable Cell Count, Count/well (myelin-reactive T cells; subject 1014, Day 28): 2.81E+06; Viable Cell Count, Total Cells (myelin-reactive T cells; subject 1014, Day 28): 8.43E+07; Fold Expansion (myelin-reactive T cells; subject 1014, Day 33): 5.2; Viable Cell Count, Count/well (myelin-reactive T cells; subject 1014, Day 33): 5.17E+06; Viable Cell Count, Total Cells (myelin-reactive T cells; subject 1014, Day 33): 1.55E+08; Fold Expansion (myelin-reactive T cells; subject 1014, Day 35): 5.3; Viable Cell Count, Count/well (myelin-reactive T cells; subject 1014, Day 35): 5.33E+06; Viable Cell Count, Total Cells (myelin-reactive T cells; subject 1014, Day 35): 1.60E+08; Viable Cell Count, Total Cells (myelin-reactive T cells; subject 1042, Day 35): 2.47E+08
